Assay results from US20260027116A1, “Methods of Treating Chronic Graft-Versus-Host Disease Following Allogeneic Hematopoietic Stem Cell Transplantation” (Kadmon Corporation, LLC, priority 2022, published 2026).

Experiments:
[1] = tested on: lung function; assay: Example 1: percent predicted TLC change from baseline; assay type: in vivo, human; details: mean (SD)
Procedure: Change From Baseline in Percent Predicted Total Lung Capacity (TLC) at Each Specified Time Points. TLC is the volume of air in the lungs upon the maximum effort of inspiration. Baseline value was defined as valid and last non-missing value obtained within 28 days prior to participant receiving first study medication. EOT visit was performed within 3 days after the participant's last dose of study drug. […] Analysis was performed on mITT population. Here, ‘number analyzed’=participants with available data for each specified category. Here, ‘0’ in the number analyzed field signifies that none of the participants were available for the analysis at the specified time points.

[2] = target: T1, CYP1A2 (Homo sapiens, UniProt P05177); assay: enzyme inhibition in vitro; assay type: in vitro ADME
T1 sequence (P05177 1-516): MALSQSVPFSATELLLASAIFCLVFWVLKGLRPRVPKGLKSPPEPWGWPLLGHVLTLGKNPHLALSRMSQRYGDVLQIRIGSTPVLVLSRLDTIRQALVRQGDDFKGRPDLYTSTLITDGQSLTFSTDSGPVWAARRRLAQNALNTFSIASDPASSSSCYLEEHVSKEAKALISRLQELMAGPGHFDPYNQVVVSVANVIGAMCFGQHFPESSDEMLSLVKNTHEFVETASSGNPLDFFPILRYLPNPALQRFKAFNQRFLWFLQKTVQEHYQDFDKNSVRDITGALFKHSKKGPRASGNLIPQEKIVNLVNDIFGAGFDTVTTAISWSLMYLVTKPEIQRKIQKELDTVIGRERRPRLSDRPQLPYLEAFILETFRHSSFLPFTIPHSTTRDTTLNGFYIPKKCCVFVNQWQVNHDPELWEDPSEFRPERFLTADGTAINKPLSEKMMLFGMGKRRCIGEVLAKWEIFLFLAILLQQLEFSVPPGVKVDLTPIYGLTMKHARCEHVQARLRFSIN

[3] = pharmacokinetics in chronic GVHD patients; assay type: in vivo, human; details: 200 and 400 mg
[4] = target: T2, UGT1A9 (Homo sapiens, UniProt O60656); assay: enzyme inhibition in vitro; assay type: in vitro ADME
T2 sequence (O60656 26-530): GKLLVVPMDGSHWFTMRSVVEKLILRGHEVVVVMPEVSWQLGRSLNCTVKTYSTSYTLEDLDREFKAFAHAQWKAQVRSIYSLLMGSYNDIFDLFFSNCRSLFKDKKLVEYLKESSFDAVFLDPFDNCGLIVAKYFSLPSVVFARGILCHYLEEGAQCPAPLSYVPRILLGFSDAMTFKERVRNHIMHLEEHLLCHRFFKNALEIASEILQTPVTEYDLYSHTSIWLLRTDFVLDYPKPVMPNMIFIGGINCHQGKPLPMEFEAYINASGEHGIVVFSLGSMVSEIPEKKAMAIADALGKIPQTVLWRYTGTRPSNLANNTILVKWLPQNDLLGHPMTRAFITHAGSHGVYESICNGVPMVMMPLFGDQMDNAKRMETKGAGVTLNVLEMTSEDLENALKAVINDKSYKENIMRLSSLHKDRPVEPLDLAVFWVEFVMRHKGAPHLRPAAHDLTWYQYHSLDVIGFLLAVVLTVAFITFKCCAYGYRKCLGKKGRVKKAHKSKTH

## CC(C)NC(=O)COc1cccc(-c2nc(Nc3ccc4[nH]ncc4c3)c3ccccc3n2)c1 [Belumosudil, 2-{3-[4-(1H-indazol-5-ylamino)-2-quinazolinyl]phenoxy}-N-(propan-2-yl) acetamide]
[1]; Cohort 2: 200 mg BID, Cycle 14, Day 1
  Change From Baseline in Percent Predicted Total Lung Capacity (TLC): −7.0 (—) Percent Predicted TLC
[1]; Cohort 2: 200 mg BID, Cycle 15, Day 1
  Change From Baseline in Percent Predicted Total Lung Capacity (TLC): −1.0 (5.6) Percent Predicted TLC
[1]; Cohort 2: 200 mg BID, Cycle 16, Day 1
  Change From Baseline in Percent Predicted Total Lung Capacity (TLC): −14.0 (12.7) Percent Predicted TLC
[1]; Cohort 2: 200 mg BID, Cycle 17, Day 1
  Change From Baseline in Percent Predicted Total Lung Capacity (TLC): −17.0 (11.4) Percent Predicted TLC
[1]; Cohort 2: 200 mg BID, Cycle 18, Day 1
  Change From Baseline in Percent Predicted Total Lung Capacity (TLC): −16.0 (8.5) Percent Predicted TLC
[1]; Cohort 2: 200 mg BID, Cycle 19, Day 1
  Change From Baseline in Percent Predicted Total Lung Capacity (TLC): −7.7 (10.5) Percent Predicted TLC
[1]; Cohort 2: 200 mg BID, Cycle 20, Day 1
  Change From Baseline in Percent Predicted Total Lung Capacity (TLC): −9.5 (16.3) Percent Predicted TLC
[1]; Cohort 2: 200 mg BID, Cycle 21, Day 1
  Change From Baseline in Percent Predicted Total Lung Capacity (TLC): −18.0 (—) Percent Predicted TLC
[1]; Cohort 2: 200 mg BID, Cycle 22, Day 1
  Change From Baseline in Percent Predicted Total Lung Capacity (TLC): −18.5 (6.4) Percent Predicted TLC
[1]; Cohort 2: 200 mg BID, Cycle 23, Day 1
  Change From Baseline in Percent Predicted Total Lung Capacity (TLC): −21.0 (19.8) Percent Predicted TLC
[1]; Cohort 2: 200 mg BID, Cycle 24, Day 1
  Change From Baseline in Percent Predicted Total Lung Capacity (TLC): −15.0 (—) Percent Predicted TLC
[1]; Cohort 2: 200 mg BID, Cycle 25, Day 1
  Change From Baseline in Percent Predicted Total Lung Capacity (TLC): −19.5 (13.4) Percent Predicted TLC
[1]; Cohort 2: 200 mg BID, Cycle 27, Day 1
  Change From Baseline in Percent Predicted Total Lung Capacity (TLC): −24.0 (12.7) Percent Predicted TLC
[1]; Cohort 2: 200 mg BID, Cycle 29, Day 1
  Change From Baseline in Percent Predicted Total Lung Capacity (TLC): −27.5 (21.9) Percent Predicted TLC
[1]; Cohort 2: 200 mg BID, Cycle 31, Day 1
  Change From Baseline in Percent Predicted Total Lung Capacity (TLC): −36.0 (—) Percent Predicted TLC
[1]; Cohort 2: 200 mg BID, Cycle 33, Day 1
  Change From Baseline in Percent Predicted Total Lung Capacity (TLC): −39.0 (—) Percent Predicted TLC
[1]; Cohort 2: 200 mg BID, Cycle 35, Day 1
  Change From Baseline in Percent Predicted Total Lung Capacity (TLC): −23.5 (16.3) Percent Predicted TLC
[1]; Cohort 2: 200 mg BID, EOT
  Change From Baseline in Percent Predicted Total Lung Capacity (TLC): −2.4 (15.0) Percent Predicted TLC
[1]; Cohort 3: 400 mg QD, Cycle 2, Day 1
  Change From Baseline in Percent Predicted Total Lung Capacity (TLC): −9.0 (13.4) Percent Predicted TLC
[1]; Cohort 3: 400 mg QD, Cycle 3, Day 1
  Change From Baseline in Percent Predicted Total Lung Capacity (TLC): −0.6 (14.8) Percent Predicted TLC
[1]; Cohort 3: 400 mg QD, Cycle 4, Day 1
  Change From Baseline in Percent Predicted Total Lung Capacity (TLC): 3.3 (14.0) Percent Predicted TLC
[1]; Cohort 3: 400 mg QD, Cycle 5, Day 1
  Change From Baseline in Percent Predicted Total Lung Capacity (TLC): −1.7 (11.2) Percent Predicted TLC
[1]; Cohort 3: 400 mg QD, Cycle 6, Day 1
  Change From Baseline in Percent Predicted Total Lung Capacity (TLC): −4.4 (11.6) Percent Predicted TLC
[1]; Cohort 3: 400 mg QD, Cycle 7, Day 1
  Change From Baseline in Percent Predicted Total Lung Capacity (TLC): −2.6 (13.4) Percent Predicted TLC
[1]; Cohort 3: 400 mg QD, Cycle 8, Day 1
  Change From Baseline in Percent Predicted Total Lung Capacity (TLC): −0.2 (12.9) Percent Predicted TLC
[1]; Cohort 3: 400 mg QD, Cycle 9, Day 1
  Change From Baseline in Percent Predicted Total Lung Capacity (TLC): −0.9 (15.8) Percent Predicted TLC
[1]; Cohort 3: 400 mg QD, Cycle 10, Day 1
  Change From Baseline in Percent Predicted Total Lung Capacity (TLC): 3.6 (14.7) Percent Predicted TLC
[1]; Cohort 3: 400 mg QD, Cycle 11, Day 1
  Change From Baseline in Percent Predicted Total Lung Capacity (TLC): −3.0 (19.7) Percent Predicted TLC
[1]; Cohort 3: 400 mg QD, Cycle 12, Day 1
  Change From Baseline in Percent Predicted Total Lung Capacity (TLC): −8.0 (14.2) Percent Predicted TLC
[1]; Cohort 3: 400 mg QD, Cycle 13, Day 1
  Change From Baseline in Percent Predicted Total Lung Capacity (TLC): −3.3 (17.6) Percent Predicted TLC
[1]; Cohort 3: 400 mg QD, Cycle 14, Day 1
  Change From Baseline in Percent Predicted Total Lung Capacity (TLC): −5.8 (16.5) Percent Predicted TLC
[1]; Cohort 3: 400 mg QD, Cycle 15, Day 1
  Change From Baseline in Percent Predicted Total Lung Capacity (TLC): −7.0 (12.0) Percent Predicted TLC
[1]; Cohort 3: 400 mg QD, Cycle 16, Day 1
  Change From Baseline in Percent Predicted Total Lung Capacity (TLC): −15.5 (9.5) Percent Predicted TLC
[1]; Cohort 3: 400 mg QD, Cycle 17, Day 1
  Change From Baseline in Percent Predicted Total Lung Capacity (TLC): −18.1 (15.6) Percent Predicted TLC
[1]; Cohort 3: 400 mg QD, Cycle 18, Day 1
  Change From Baseline in Percent Predicted Total Lung Capacity (TLC): 0.0 (13.9) Percent Predicted TLC
[1]; Cohort 3: 400 mg QD, Cycle 19, Day 1
  Change From Baseline in Percent Predicted Total Lung Capacity (TLC): −7.0 (5.4) Percent Predicted TLC
[1]; Cohort 3: 400 mg QD, Cycle 20, Day 1
  Change From Baseline in Percent Predicted Total Lung Capacity (TLC): −9.3 (15.4) Percent Predicted TLC
[1]; Cohort 3: 400 mg QD, Cycle 21, Day 1
  Change From Baseline in Percent Predicted Total Lung Capacity (TLC): −14.4 (24.0) Percent Predicted TLC
[1]; Cohort 3: 400 mg QD, Cycle 22, Day 1
  Change From Baseline in Percent Predicted Total Lung Capacity (TLC): −21.0 (14.1) Percent Predicted TLC
[1]; Cohort 3: 400 mg QD, Cycle 23, Day 1
  Change From Baseline in Percent Predicted Total Lung Capacity (TLC): −2.8 (18.8) Percent Predicted TLC
[1]; Cohort 3: 400 mg QD, Cycle 24, Day 1
  Change From Baseline in Percent Predicted Total Lung Capacity (TLC): −34.0 (—) Percent Predicted TLC
[1]; Cohort 3: 400 mg QD, Cycle 25, Day 1
  Change From Baseline in Percent Predicted Total Lung Capacity (TLC): −6.3 (24.1) Percent Predicted TLC
[1]; Cohort 3: 400 mg QD, Cycle 27, Day 1
  Change From Baseline in Percent Predicted Total Lung Capacity (TLC): −14.5 (24.7) Percent Predicted TLC
[1]; Cohort 3: 400 mg QD, Cycle 29, Day 1
  Change From Baseline in Percent Predicted Total Lung Capacity (TLC): 12.0 (14.1) Percent Predicted TLC
[1]; Cohort 3: 400 mg QD, Cycle 31, Day 1
  Change From Baseline in Percent Predicted Total Lung Capacity (TLC): 17.0 (—) Percent Predicted TLC
[1]; Cohort 3: 400 mg QD, Cycle 35, Day 1
  Change From Baseline in Percent Predicted Total Lung Capacity (TLC): 13.0 (—) Percent Predicted TLC
[1]; Cohort 3: 400 mg QD, Cycle 36, Day 1
  Change From Baseline in Percent Predicted Total Lung Capacity (TLC): −6.0 (—) Percent Predicted TLC
[1]; Cohort 3: 400 mg QD, Cycle 49, Day 1
  Change From Baseline in Percent Predicted Total Lung Capacity (TLC): 1.0 (—) Percent Predicted TLC
[1]; Cohort 3: 400 mg QD, EOT
  Change From Baseline in Percent Predicted Total Lung Capacity (TLC): −12.6 (20.1) Percent Predicted TLC
[2]
  inhibition of CYP1A2: inhibitor
[3]
  dose dependence of Cmax and AUC: approximately proportional
[4]
  inhibition of UGT1A9: inhibitor
